We go through two compounds from patent US11000525B2, “1-[2-(aminomethyl)benzyl]-2-thioxo-1,2,3,5-tetrahydro-4H-pyrrolo[3,2-d]pyrimidin-4-ones as inhibitors of myeloperoxidase” (AstraZeneca AB, priority 2014, dated 2021).

The structures appear in SMILES notation. Entries after “also recorded” stand apart in the source; their conditions may differ.

A short description of assay [1]: Plasma urate levels in healthy volunteers (clinical trials). To be noted: daily dose for 10 days, NCT00914303, FIG. 2. The class given is in vivo, human. The method, then: Subjects received placebo or the indicated daily dose for 10 days, and the difference in plasma urate levels versus baseline was calculated. Each symbol represents one subject.
In assay [2] the test system is MPO purified from the human cell line HL60. Briefly: MPO inhibition screen (Test A), ascorbate loss at 260 nm. The class given is biochemical. The settings on record: selectivity for MPO over TPO. The method, then:
Methods for the determination of MPO inhibitory activity are disclosed in WO 02/090575. The pharmacological activity of compounds disclosed herein was tested in the following screen (Test A) in which the compounds were tested in the presence of ascorbate, which reacts with MPO-derived hypochlorous acid (HOCl) to form dehydro-ascorbate. The loss of ascorbate is followed by measuring absorbance at 260 nm.
Assay buffer: 100 μM diethyl triamine pentaacetic acid (DTPA) in buffer consisting of 10 mM Na2HPO4/NaH2PO4, 3 mM KCl in 140 mM NaCl, pH 7.4.
Enzyme solution: MPO purified from the human cell line HL60, 1.38 nM (final concentration 0.7 nM) and L-ascorbate, 100 μM (final concentration 50 μM) in Assay buffer
Absorbance was measured at 260 nm to obtain a compound blank value. After an additional 10 min, 40 μL of the substrate solution was added and the absorbance at 260 nm was recorded between 4 and 40 min to obtain kinetic readings of enzyme activity.

Consider `CC(C)OCCn1c(=S)[nH]c(=O)c2[nH]ccc21` [AZD3241], for which, in assay [1], the “Reduction of plasma urate (uric acid) levels versus baseline” value was “dose-dependent reduction of uric acid; also recorded: dose-dependently reduced urate levels”.

In the case of `O=c1[nH]c(=S)n(Cc2ccccc2CNC2CCC2)c2cc[nH]c12` [Example 10, 1-{2-[(Cyclobutylamino)methyl]benzyl}-2-thioxo-1,2,3,5-tetrahydro-4H-pyrrolo[3,2-d]pyrimidin-4-one], the “IC50 (TPO)/IC50 (MPO)” value in assay [2] worked out at 1100.
